Data: article PMC10447463, “Data-mining unveils structure–property–activity correlation of viral infectivity enhancing self-assembling peptides” (Nature Communications, 2023)

Assay: Aggregate analysis by widefield fluorescence microscopy
Format: physicochemical
Outline: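 Brightfield images were acquired alongside ThT fluorescence so that aggregates lacking ThT signal were also captured. Preformed peptide fibrils had been incubated 1 d at RT in PBS before dilution to 0.1 mg/mL in 50 µM ThT, and particles above 10 µm^2 were then counted and sized automatically.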

[1] = Fig S8 panels A, C, 3 fields of 1330 µm x 1330 µm
[2] = Fig S8 panels B, D, average aggregate area, 3 fields of 1330 µm x 1330 µm
[3] = Fig S8 panels B, D, median aggregate area, 3 fields of 1330 µm x 1330 µm
[4] = Fig S8 panels B, D, 3 fields of 1330 µm x 1330 µm
[5] = Fig S8 panels B, D, widefield fluorescence microscopy, 3 fields of 1330 µm x 1330 µm

Row | Substance | Avg Area in 3 *(1330 µm *1330 µm) (Fig S8 panels A, C) | Log 10 Number of aggregates in 3 * (1330 µm *1330 µm) (Fig S8 panels A, C) | Median Area in 3 * (1330 µm *1330 µm) (Fig S8 panels A, C) | log Avg Area in 3 * ( (1330 µm *1330 µm)) (Fig S8 panels A, C) | log Median Area in 3 * ( (1330 µm *1330 µm)) (Fig S8 panels A, C) | log Total Area of all particles in 3 * (1330 µm *1330 µm) (Fig S8 panels A, C) | Number of aggregates in 3 * (1330 µm *1330 µm) [1] | Avg Area in 3 *(1330 µm *1330 µm) [2] | Median Area in 3 * (1330 µm *1330 µm) [3] | Total Area of all particles in 3 * (1330 µm *1330 µm) [4] | Number of aggregates in 3 * (1330 µm *1330 µm) [5]
1 | QCKIKIQINMWQ [EF-C opt] | 21.24 | 2.6 | 11.97 | 1.327 | 1.078 | 3.927 | 398 | 21.24 | 11.97 | 8454 | 398
2 | KIKQIINMWQ [JG2] | 398.2 | 1.591 | 199.4905 | 2.6 | 2.3 | 4.191 | 39 | 398.2 | 199.4905 | 15530.404 | 39
3 | KWKWQW [KB3] | 112 | 1.442 | 41.405 | 2.049 | 1.617 | 3.491 | 27.67 | 112 | 41.405 | 3098 | 27.67
4 | CKIKQII [MG4a] | 110.6 | 1.8789 | 36.476 | 2.044 | 1.562 | 3.923 | 75.67 | 110.6 | 36.476 | 8372.136 | 75.67
5 | CKFKFQF [BL4] | 86.55 | 2.108 | 22.111 | 1.937 | 1.345 | 4.0456 | 128.3 | 86.55 | 22.111 | 11106.98933 | 128.3
6 | QCKFKQFFNMWQ [CK10] | – | – | – | – | – | – | – | 30.56 | 15.07 | 55430.97933 | 1814
7 | CSISIQI [TM141] | 112.5 | 2.091 | 18.872 | 2.051 | 1.276 | 4.142 | 123.3 | 112.5 | 18.872 | 13871.26567 | 123.3
8 | CKFKFQFW [TM72] | 28.12 | 2.713 | 16.689 | 1.449 | 1.222 | 4.162 | 517 | 28.12 | 16.689 | 14537.202 | 517
